Values of other authors in patent US9017727B2, “Amino acid composition with improved dispersibility” (N.V. Nutricia, priority 2009, dated 2015).

Conditions: in water at 20 degrees Celsius

Compound | Solubility (at 20° C.) (g/100 ml)
N[C@@H](CS)C(=O)O [Cysteine] | 16
N[C@@H](CSSC[C@H](N)C(=O)O)C(=O)O [Cystine] | 0.009
NC(=O)CC[C@H](N)C(=O)O [Glutamine] | 3.73
N[C@@H](Cc1c[nH]cn1)C(=O)O [Histidine] | 3.84
CC[C@H](C)[C@H](N)C(=O)O [Isoleucine] | 4.02
C[C@H](N)C(=O)O [L-Alanine] | 15.8
CC(C)C[C@H](N)C(=O)O [Leucine] | 2.38
CSCC[C@H](N)C(=O)O [Methionine] | 4.8
CC(=O)N[C@@H](CS)C(=O)O [N-acetyl cysteine] | 17
N[C@@H](Cc1ccccc1)C(=O)O [Phenylalanine] | 2.74
N[C@@H](Cc1c[nH]c2ccccc12)C(=O)O [Tryptophan] | 1.06
CC(C)[C@H](N)C(=O)O [Valine] | 5.75
Cysteine HCL-anhydrous | 102
